Experimental data as given in patent publication US11896591B2, “Compositions and methods for preparing and using mitochondrial uncouplers” (UNIVERSITY OF VIRGINIA PATENT FOUNDATION, priority 2017, dated 2024).

What follows are compounds tested on whole cells (assay: Oxygen consumption rate (OCR) in whole cells, Seahorse XF-24 Flux Analyzer). Conditions: binned EC50 values; increase in oxygen consumption rate in whole cells.
Type: cell-based
Procedure: Biological activities of the compounds synthesized is determined by determining increase in oxygen consumption rate (OCR).
OCR is measured using a Seahorse XF-24 Flux Analyzer (Seahorse Biosciences, North Billerica, MA). NMuLi, C2C12, and L6 cells are seeded in a Seahorse 24-well tissue culture plate at a density of 3.5×10^4 cells/well, isolated cardiomyocytes at a density of 4×10^4 cells/well, and human primary fibroblasts at a density of 1.1×10^4 cells/well. The cells are then allowed to adhere for 24 h. […] Compounds are injected during the assay and OCR is measured using 2 min measurement periods.
2-3 wells are used per condition and averaged over three plates (n=6-9). Statistical significance is determined by two-way ANOVA with Bonferroni's posttest.
In the case of `Cc1ccccc1Nc1nc2nonc2nc1Nc1ccccc1C` [Compound 3a, N^5,N^6-di-o-tolyl-[1,2,5]oxadiazolo[3,4-b]pyrazine-5,6-diamine], the EC50 is reported as > 20 µM.
Compound `Cn1c(C(F)(F)F)nc2nc(Nc3cc(C(F)(F)F)cc(C(F)(F)F)c3)c(Nc3cc(C(F)(F)F)cc(C(F)(F)F)c3)nc21` [Compound 13d, N^5,N^6-bis(3,5-bis(trifluoromethyl)phenyl)-1-methyl-2-(trifluoromethyl)-imidazo[4,5-b]pyrazine-5,6-diamine] has an EC50 of 5 to 20 µM.
In the case of `COC(=O)c1ccc(Nc2nc3nonc3nc2Nc2ccc(C(=O)OC)cc2)cc1` [Compound 3t, Dimethyl 4,4′-([1,2,5]oxadiazolo[3,4-b]pyrazine-5,6-diylbis(azanediyl))dibenzoate], the EC50 is reported as < 5 µM.
With `Fc1cccc(Nc2nc3nc(C(F)(F)F)[nH]c3nc2Nc2cccc(F)c2F)c1F` [Compound 12j, N^5,N^6-bis(2,3-difluorophenyl)-2-(trifluoromethyl)-1H-imidazo[4,5-b]pyrazine-5,6-diamine] the EC50 was < 5 µM.
In the case of `FC(F)(F)c1cccc(Nc2nc3nonc3nc2Nc2cccc(C(F)(F)F)c2)c1` [Compound 3r, N^5,N^6-bis(3-(trifluoromethyl)phenyl)-[1,2,5]oxadiazolo[3,4-b]pyrazine-5,6-diamine], the EC50 is reported as < 5 µM.
For `FC(F)(F)c1ccc(Nc2nc3nonc3nc2Nc2cccc(C(F)(F)F)c2)cc1` [Compound 4x, N^5-(3-(trifluoromethyl)phenyl)-N^6-(4-(trifluoromethyl)phenyl)-[1,2,5]oxadiazolo[3,4-b]pyrazine-5,6-diamine], the EC50 was < 5 µM.
In the case of `Fc1ccccc1Nc1nc2nc(C(F)(F)F)[nH]c2nc1Nc1cccc(C(F)(F)F)c1F` [Compound 12t, N^5-(2-fluorophenyl)-N^6-(2-fluoro-3-(trifluoromethyl)phenyl)-2-(trifluoromethyl)-1H-imidazo[4,5-b]pyrazine-5,6-diamine], the EC50 is reported as < 5 µM.
`CNc1nc2nonc2nc1Nc1ccccc1F` [Compound 7a, N^5-(2-fluorophenyl)-N^6-methyl-[1,2,5]oxadiazolo[3,4-b]pyrazine-5,6-diamine] showed an EC50 of 5 to 20 µM.
With `FC(F)(F)c1ccc(Nc2nc3nonc3nc2Nc2ccc(C(F)(F)F)cc2)cc1` [Compound 3s, N^5,N^6-bis(4-(trifluoromethyl)phenyl)-[1,2,5]oxadiazolo[3,4-b]pyrazine-5,6-diamine] the EC50 was < 5 µM.
`Fc1ccccc1Nc1nc2nc(C(F)(F)F)[nH]c2nc1Nc1ccc(OC(F)(F)F)cc1` [Compound 12p, N^5-(2-fluorophenyl)-N^6-(4-(trifluoromethoxy)phenyl)-2-(trifluoromethyl)-1H-imidazo[4,5-b]pyrazine-5,6-diamine] was tested, and the EC50 was < 5 µM.
Work on `Cn1c(C(F)(F)F)nc2nc(Nc3cc(F)cc(F)c3)c(Nc3cc(F)cc(F)c3)nc21` [Compound 13i, N^5,N^6-bis(3,5-difluorophenyl)-1-methyl-2-(trifluoromethyl)-imidazo[4,5-b]pyrazine-5,6-diamine] yielded an EC50 of 5 to 20 µM.
`Cn1c(C(F)(F)F)nc2nc(Nc3ccccc3F)c(Nc3ccccc3)nc21` [Compound 13s, 1-Methyl-N^5-(2-fluorophenyl)-N^6-phenyl-2-(trifluoromethyl)-imidazo[4,5-b]pyrazine-5,6-diamine] was tested, and the EC50 was > 20 µM.
`Cn1c(C(F)(F)F)nc2nc(Nc3ccccc3F)c(Nc3ccc(OC(F)(F)F)cc3)nc21` [Compound 13p, 1-Methyl-N^5-(2-fluorophenyl)-N^6-(4-(trifluoromethoxy)phenyl)-2-(trifluoromethyl)-imidazo[4,5-b]pyrazine-5,6-diamine] was tested, and the EC50 was > 20 µM.
`Fc1ccccc1Nc1nc2nonc2nc1Nc1cc(C(F)(F)F)cc(C(F)(F)F)c1` [Compound 4aa, N^5-(3,5-bis(trifluoromethyl)phenyl)-N^6-(2-fluorophenyl)-[1,2,5]oxadiazolo[3,4-b]pyrazine-5,6-diamine] was tested, and the EC50 was < 5 µM.
With `Fc1cc(Nc2nc3nc(C(F)(F)F)[nH]c3nc2Nc2ccc(C(F)(F)F)c(F)c2)ccc1C(F)(F)F` [Compound 12h, N^5,N^6-bis(3-fluoro-4-(trifluoromethyl)phenyl)-2-(trifluoromethyl)-1H-imidazo[4,5-b]pyrazine-5,6-diamine] the EC50 was 5 to 20 µM.
In the case of `COc1ccc(Nc2nc3nc(C(F)(F)F)[nH]c3nc2Nc2ccc(OC)cc2)cc1` [Compound 12n, N^5,N^6-bis(4-methoxyphenyl)-2-(trifluoromethyl)-1H-imidazo[4,5-b]pyrazine-5,6-diamine], the EC50 is reported as > 20 µM.
In the case of `Cc1cccc(Nc2nc3nonc3nc2Nc2ccccc2F)c1` [Compound 4h, N^5-(2-fluorophenyl)-N^6-(m-tolyl)-[1,2,5]oxadiazolo[3,4-b]pyrazine-5,6-diamine], the EC50 is reported as < 5 µM.
`Cc1ccc(Nc2nc3c(nc2Nc2ccccc2F)nc(C(F)(F)F)n3C)cc1` [Compound 13u, 1-Methyl-N^5-(2-fluorophenyl)-N^6-(p-tolyl)-2-(trifluoromethyl)-imidazo[4,5-b]pyrazine-5,6-diamine] was tested, and the EC50 was > 20 µM.
`Fc1cc(F)cc(Nc2nc3nc(C(F)(F)F)[nH]c3nc2Nc2cc(F)cc(F)c2)c1` [Compound 12i, N^5,N^6-bis(3,5-difluorophenyl)-2-(trifluoromethyl)-1H-imidazo[4,5-b]pyrazine-5,6-diamine] was tested, and the EC50 was 5 to 20 µM.
`Fc1ccccc1Nc1nc2nonc2nc1Nc1cccc(OC(F)(F)F)c1` [Compound 4r, N^5-(2-fluorophenyl)-N^6-(3-(trifluoromethoxy)phenyl)-[1,2,5]oxadiazolo[3,4-b]pyrazine-5,6-diamine] gave an EC50 of 5 to 20 µM.
For `Fc1c(Nc2nc3nc(C(F)(F)F)[nH]c3nc2Nc2cccc(C(F)(F)F)c2F)cccc1C(F)(F)F` [Compound 12e, N^5,N^6-bis(2-fluoro-3-(trifluoromethyl)phenyl)-2-(trifluoromethyl)-1H-imidazo[4,5-b]pyrazine-5,6-diamine], the EC50 was 5 to 20 µM.
With `Cc1ccc(Nc2nc3nc(C(F)(F)F)[nH]c3nc2Nc2ccc(C)cc2)cc1` [Compound 12k, N^5,N^6-di-p-tolyl-2-(trifluoromethyl)-1H-imidazo[4,5-b]pyrazine-5,6-diamine] the EC50 was > 20 µM.
`Cn1c(C(F)(F)F)nc2nc(Nc3ccccc3F)c(NCCC(F)(F)F)nc21` [Compound 13x, 1-Methyl-N^5-(2-fluorophenyl)-N^6-3,3,3-trifluoropropyl-2-(trifluoromethyl)-imidazo[4,5-b]pyrazine-5,6-diamine] was tested, and the EC50 was > 20 µM.
In the case of `Fc1ccccc1Nc1nc2nc(C(F)(F)F)[nH]c2nc1Nc1cc(C(F)(F)F)cc(C(F)(F)F)c1` [Compound 12q, N^5-(2-fluorophenyl)-N^6-(3,5-bis(trifluoromethyl)phenyl)-2-(trifluoromethyl)-1H-imidazo[4,5-b]pyrazine-5,6-diamine], the EC50 is reported as 5 to 20 µM.
In the case of `Fc1cc(C(F)(F)F)ccc1Nc1nc2nc(C(F)(F)F)[nH]c2nc1Nc1ccc(C(F)(F)F)cc1F` [Compound 12g, N^5,N^6-bis(2-fluoro-4-(trifluoromethyl)phenyl)-2-(trifluoromethyl)-1H-imidazo[4,5-b]pyrazine-5,6-diamine], the EC50 is reported as < 5 µM.
For `Cc1cccc(Nc2nc3nonc3nc2Nc2cccc(C)c2)c1` [Compound 3b, N^5,N^6-di-m-tolyl-[1,2,5]oxadiazolo[3,4-b]pyrazine-5,6-diamine], the EC50 was < 5 µM.
`Fc1ccccc1Nc1nc2nonc2nc1Nc1cccc(C(F)(F)F)c1F` [Compound 4bb, N^5-(2-fluoro-3-(trifluoromethyl)phenyl)-N^6-(2-fluorophenyl)-[1,2,5]oxadiazolo[3,4-b]pyrazine-5,6-diamine] was tested, and the EC50 was < 5 µM.
In the case of `Fc1c(Nc2nc3nonc3nc2Nc2cccc(C(F)(F)F)c2F)cccc1C(F)(F)F` [Compound 3aa, N^5,N^6-bis(2-fluoro-3-(trifluoromethyl)phenyl)-[1,2,5]oxadiazolo[3,4-b]pyrazine-5,6-diamine], the EC50 is reported as < 5 µM.
With `FC(F)(F)c1ccccc1Nc1nc2nonc2nc1Nc1ccccc1C(F)(F)F` [Compound 3q, N^5,N^6-bis(2-(trifluoromethyl)phenyl)-[1,2,5]oxadiazolo[3,4-b]pyrazine-5,6-diamine] the EC50 was < 5 µM.
With `Fc1cc(Nc2nc3nonc3nc2Nc2ccc(C(F)(F)F)c(F)c2)ccc1C(F)(F)F` [Compound 3x, N^5,N^6-bis(3-fluoro-4-(trifluoromethyl)phenyl)-[1,2,5]oxadiazolo[3,4-b]pyrazine-5,6-diamine] the EC50 was < 5 µM.
Compound `Cc1ccc(Nc2nc3nonc3nc2Nc2ccc(C)cc2)cc1` [Compound 3c, N^5,N^6-di-p-tolyl-[1,2,5]oxadiazolo[3,4-b]pyrazine-5,6-diamine] has an EC50 of 5 to 20 µM.
With `Cn1c(C(F)(F)F)nc2nc(Nc3ccccc3F)c(NC3CCCCC3)nc21` [Compound 13v, 1-Methyl-N^5-(2-fluorophenyl)-N^6-cyclohexyl-2-(trifluoromethyl)-imidazo[4,5-b]pyrazine-5,6-diamine] the EC50 was > 20 µM.
In the case of `Fc1ccc(C(F)(F)F)cc1Nc1nc2nonc2nc1Nc1cc(C(F)(F)F)ccc1F` [Compound 3y, N^5,N^6-bis(2-fluoro-5-(trifluoromethyl)phenyl)-[1,2,5]oxadiazolo[3,4-b]pyrazine-5,6-diamine], the EC50 is reported as < 5 µM.
In the case of `FC(F)(F)c1cc(Nc2nc3nc(C(F)(F)F)[nH]c3nc2Nc2cc(C(F)(F)F)cc(C(F)(F)F)c2)cc(C(F)(F)F)c1` [Compound 12d, N^5,N^6-bis(3,5-bis(trifluoromethyl)phenyl)-2-(trifluoromethyl)-1H-imidazo[4,5-b]pyrazine-5,6-diamine], the EC50 is reported as 5 to 20 µM.
`Fc1ccccc1Nc1nc2nonc2nc1Nc1cccc(C(F)(F)F)c1` [Compound 4v, N^5-(2-fluorophenyl)-N^6-(3-(trifluoromethyl)phenyl)-[1,2,5]oxadiazolo[3,4-b]pyrazine-5,6-diamine] was tested, and the EC50 was < 5 µM.
In the case of `CCOc1cccc(Nc2nc3nonc3nc2Nc2cccc(OCC)c2)c1` [Compound 3h, N^5,N^6-bis(3-ethoxyphenyl)-[1,2,5]oxadiazolo[3,4-b]pyrazine-5,6-diamine], the EC50 is reported as 5 to 20 µM.
